# Results published in patent US4725683A, “Fluorophenoxyphenoxypropionates and derivatives thereof” (The Dow Chemical Company, priority 1985, dated 1988).
# What was measured:
# Assay in all cases: Selective postemergence, track sprayer
# Type in all cases: in vivo
# [1] = tested on: Annual Rye
# Description: (§1) Representative compositions of the present invention were evaluated for the postemergence control of species of plants listed in Table A. In these evaluations, pots of the plant species listed in Table A, grown to a height of about 10 cms, were used. Aqueous spray compositions, containing various amounts of 2-[4-(2-fluoro-4-trifluoromethylphenoxy)-phenoxy]propionic acid methy ester, i.e., 125 ppm, 62.5 ppm, 31.25 ppm, 15.6 ppm, 7.8 ppm and 3.9 ppm, respectively, were applied to separate pots. The spray compositions were made by mixing the active ingredient in acetone to 1/2 the final volume, i.e., twice the final concentration. An equal amount of water was added to the active ingredient/acetone mixture wherein the water contained 0.1 percent by weight of TWEEN® 200 surfactant. The application to the plants was made to the point of run-off and was carried out with conventional spraying equipment. Other pots were sprayed with similar compositions containing no toxicant to serve as controls. Thereafter, the pots were maintained under conditions conducive for plant growth. Two weeks after treatment, the pots were examined for plant growth and evaluated on a scale of 0 to 100 where 0 represents no effect and 100 represents complete kill. The results of the examination of the treated pots are set forth below in Table A.
# (§2) To further define the selective postemergence herbicidal characteristics of compounds of the present invention, chemicals were applied to additional species of grasses as listed in Table F. Chemicals evaluated were 2-[4-(4-bromo-2-fluorophenoxy)phenoxy]propionic acid methyl ester and its R isomer. Treatment conditions were similar to those described in Example A except that chemicals were delivered through a track sprayer set to deliver the appropriate dosages in 280.6 L/hectare of water containing 0.1% Tween-20 surfactant.
# [2] = tested on: Barley
# Description: as §1, §2
# [3] = tested on: Barnyardgrass
# Description: as §1, §2
# [4] = tested on: Blackgrass
# Description: as §1, §2
# [5] = tested on: Broadleaf Signalgrass
# Description: as §1, §2
# [6] = tested on: Cheatgrass
# Description: as §1, §2
# [7] = tested on: Downey Brome
# Description: as §1, §2
# [8] = tested on: Goosegrass
# Description: as §1, §2
# [9] = tested on: Johnsongrass
# Description: as §1, §2
# [10] = tested on: Orchardgrass
# Description: as §1, §2
# [11] = tested on: Wild Proso Millet
# Description: as §1, §2
# [12] = tested on: Yellow Foxtail
# Description: as §1, §2
structure (smiles),measurement,setting,value
"COC(=O)[C@@H](C)Oc1ccc(Oc2ccc(Br)cc2F)cc1 [4-Bromo-(R-Enantiomer), R enantiomer of 2-[4-(4-bromo-2-fluorophenoxy)phenoxy]propionic acid methyl ester]",Percent Control,[1]; 0.00055 kgs/hectare,0%
same,Percent Control,[1]; 0.0011 kgs/hectare,0%
same,Percent Control,[1]; 0.0023 kgs/hectare,0%
same,Percent Control,[1]; 0.0045 kgs/hectare,0%
same,Percent Control,[1]; 0.009 kgs/hectare,20%
same,Percent Control,[1]; 0.018 kgs/hectare,30%
same,Percent Control,[1]; 0.035 kgs/hectare,60%
same,Percent Control,[1]; 0.07 kgs/hectare,70%
same,Percent Control,[1]; 0.14 kgs/hectare,90%
same,Percent Control,[1]; 0.28 kgs/hectare,90%
same,Percent Control,[2]; 0.00055 kgs/hectare,0%
same,Percent Control,[2]; 0.0011 kgs/hectare,0%
same,Percent Control,[2]; 0.0023 kgs/hectare,0%
same,Percent Control,[2]; 0.0045 kgs/hectare,0%
same,Percent Control,[2]; 0.009 kgs/hectare,0%
same,Percent Control,[2]; 0.018 kgs/hectare,0%
same,Percent Control,[2]; 0.035 kgs/hectare,0%
same,Percent Control,[2]; 0.07 kgs/hectare,0%
same,Percent Control,[2]; 0.14 kgs/hectare,0%
same,Percent Control,[2]; 0.28 kgs/hectare,0%
same,Percent Control,[3]; 0.00055 kgs/hectare,90%
same,Percent Control,[3]; 0.0011 kgs/hectare,80%
same,Percent Control,[3]; 0.0023 kgs/hectare,100%
same,Percent Control,[3]; 0.0045 kgs/hectare,100%
same,Percent Control,[3]; 0.009 kgs/hectare,100%
same,Percent Control,[3]; 0.018 kgs/hectare,100%
same,Percent Control,[3]; 0.035 kgs/hectare,100%
same,Percent Control,[3]; 0.07 kgs/hectare,100%
same,Percent Control,[3]; 0.14 kgs/hectare,100%
same,Percent Control,[3]; 0.28 kgs/hectare,100%
same,Percent Control,[4]; 0.00055 kgs/hectare,50%
same,Percent Control,[4]; 0.0011 kgs/hectare,60%
same,Percent Control,[4]; 0.0023 kgs/hectare,60%
same,Percent Control,[4]; 0.0045 kgs/hectare,60%
same,Percent Control,[4]; 0.009 kgs/hectare,80%
same,Percent Control,[4]; 0.018 kgs/hectare,100%
same,Percent Control,[4]; 0.035 kgs/hectare,100%
same,Percent Control,[4]; 0.07 kgs/hectare,100%
same,Percent Control,[4]; 0.14 kgs/hectare,100%
same,Percent Control,[4]; 0.28 kgs/hectare,100%
same,Percent Control,[5]; 0.00055 kgs/hectare,50%
same,Percent Control,[5]; 0.0011 kgs/hectare,50%
same,Percent Control,[5]; 0.0023 kgs/hectare,50%
same,Percent Control,[5]; 0.0045 kgs/hectare,90%
same,Percent Control,[5]; 0.009 kgs/hectare,95%
same,Percent Control,[5]; 0.018 kgs/hectare,100%
same,Percent Control,[5]; 0.035 kgs/hectare,100%
same,Percent Control,[5]; 0.07 kgs/hectare,100%
same,Percent Control,[5]; 0.14 kgs/hectare,100%
same,Percent Control,[5]; 0.28 kgs/hectare,100%
same,Percent Control,[6]; 0.00055 kgs/hectare,0%
same,Percent Control,[6]; 0.0011 kgs/hectare,0%
same,Percent Control,[6]; 0.0023 kgs/hectare,0%
same,Percent Control,[6]; 0.0045 kgs/hectare,0%
same,Percent Control,[6]; 0.009 kgs/hectare,0%
same,Percent Control,[6]; 0.018 kgs/hectare,0%
same,Percent Control,[6]; 0.035 kgs/hectare,0%
same,Percent Control,[6]; 0.07 kgs/hectare,0%
same,Percent Control,[6]; 0.14 kgs/hectare,0%
same,Percent Control,[6]; 0.28 kgs/hectare,0%
same,Percent Control,[7]; 0.00055 kgs/hectare,0%
same,Percent Control,[7]; 0.0011 kgs/hectare,0%
same,Percent Control,[7]; 0.0023 kgs/hectare,0%
same,Percent Control,[7]; 0.0045 kgs/hectare,0%
same,Percent Control,[7]; 0.009 kgs/hectare,0%
same,Percent Control,[7]; 0.018 kgs/hectare,0%
same,Percent Control,[7]; 0.035 kgs/hectare,0%
same,Percent Control,[7]; 0.07 kgs/hectare,0%
same,Percent Control,[7]; 0.14 kgs/hectare,0%
same,Percent Control,[7]; 0.28 kgs/hectare,0%
same,Percent Control,[8]; 0.00055 kgs/hectare,0%
same,Percent Control,[8]; 0.0011 kgs/hectare,0%
same,Percent Control,[8]; 0.0023 kgs/hectare,0%
same,Percent Control,[8]; 0.0045 kgs/hectare,20%
same,Percent Control,[8]; 0.009 kgs/hectare,70%
same,Percent Control,[8]; 0.018 kgs/hectare,50%
same,Percent Control,[8]; 0.035 kgs/hectare,70%
same,Percent Control,[8]; 0.07 kgs/hectare,70%
same,Percent Control,[8]; 0.14 kgs/hectare,80%
same,Percent Control,[8]; 0.28 kgs/hectare,80%
same,Percent Control,[9]; 0.00055 kgs/hectare,0%
same,Percent Control,[9]; 0.0011 kgs/hectare,0%
same,Percent Control,[9]; 0.0023 kgs/hectare,0%
same,Percent Control,[9]; 0.0045 kgs/hectare,0%
same,Percent Control,[9]; 0.009 kgs/hectare,0%
same,Percent Control,[9]; 0.018 kgs/hectare,0%
same,Percent Control,[9]; 0.035 kgs/hectare,0%
same,Percent Control,[9]; 0.07 kgs/hectare,20%
same,Percent Control,[9]; 0.14 kgs/hectare,40%
same,Percent Control,[9]; 0.28 kgs/hectare,70%
same,Percent Control,[10]; 0.00055 kgs/hectare,0%
same,Percent Control,[10]; 0.0011 kgs/hectare,0%
same,Percent Control,[10]; 0.0023 kgs/hectare,0%
same,Percent Control,[10]; 0.0045 kgs/hectare,0%
same,Percent Control,[10]; 0.009 kgs/hectare,0%
same,Percent Control,[10]; 0.018 kgs/hectare,0%
same,Percent Control,[10]; 0.035 kgs/hectare,0%
same,Percent Control,[10]; 0.07 kgs/hectare,0%
same,Percent Control,[10]; 0.14 kgs/hectare,0%
same,Percent Control,[10]; 0.28 kgs/hectare,50%
same,Percent Control,[11]; 0.00055 kgs/hectare,30%
same,Percent Control,[11]; 0.0011 kgs/hectare,30%
same,Percent Control,[11]; 0.0023 kgs/hectare,80%
same,Percent Control,[11]; 0.0045 kgs/hectare,100%
same,Percent Control,[11]; 0.009 kgs/hectare,95%
same,Percent Control,[11]; 0.018 kgs/hectare,100%
same,Percent Control,[11]; 0.035 kgs/hectare,100%
same,Percent Control,[11]; 0.07 kgs/hectare,100%
same,Percent Control,[11]; 0.14 kgs/hectare,100%
same,Percent Control,[11]; 0.28 kgs/hectare,100%
same,Percent Control,[12]; 0.00055 kgs/hectare,0%
same,Percent Control,[12]; 0.0011 kgs/hectare,0%
same,Percent Control,[12]; 0.0023 kgs/hectare,20%
same,Percent Control,[12]; 0.0045 kgs/hectare,20%
same,Percent Control,[12]; 0.009 kgs/hectare,50%
same,Percent Control,[12]; 0.018 kgs/hectare,90%
same,Percent Control,[12]; 0.035 kgs/hectare,100%
same,Percent Control,[12]; 0.07 kgs/hectare,100%
same,Percent Control,[12]; 0.14 kgs/hectare,100%
same,Percent Control,[12]; 0.28 kgs/hectare,100%
